Here are results for 2 molecules from US12251427B2, “Reduced oxygen carriers and their use for the treatment of carboxyhemoglobinemia” (priority 2016, dated 2025).

For series [1] the following is noted: cited from earlier work.
Series [2] in a line: LD50 dose in mice (calculated). Particulars: mice of approximately 25 g.
For series [3] the following is noted: rats; cited from earlier work.
The test system of series [4] is HbCO. Nature of the series: HbCO removal in CO poisoned mice (1500 ppm CO, moderate CO poisoning model). In kind it is in vivo. To be noted: after 5 minutes of return to normal air, 250 μL of 8-12 mM infused. On the procedure: FIG. 1 is a graph showing the in vivo binding of CO from hemoglobin by recombinant neuroglobin in a mouse model for moderate CO poisoning.
(§1) It was previously shown that exposure of mice to air with 1500 ppm CO gas for an average of 50 minutes caused HbCO levels to increase to 64%+/−1% (PCT Publication No. WO 2014/150413). Prior to exposure, mice were surgically instrumented with placement of femoral artery and vein catheters for blood pressure monitoring, blood sampling and infusions of either recombinant neuroglobin (rNgb), another type of CO scavenging globin protein, or PBS as a control. Mice were infused with 250 μL of 8-12 mM rNgb or PBS within 4 minutes using a Harvard infusion pump. Immediately after infusion and every 5 minutes, 5 μL of blood was collected for measurement of HbCO. […] In particular, after 5 minutes of return to normal air, the HbCO levels dropped by an average of 32.8% in the group that received rNgb versus 13.3% in the group that received PBS (FIG. 1).

Series [5] in a line: rNgb found in urinary bladder after infusion. In kind it is in vivo. Particulars: after 60 minutes, mice sacrificed. On the procedure: as §1

`O=S([O-])S(=O)[O-].[Na+].[Na+]` [Dithionite, sodium dithionite]: in series [1], the “predicted human LD50” value was 500 mg/kg. The “LD50 dose in mice” value in series [2] is “about 62.5 mg”. The LD50 in series [3] is recorded as 2500 mg/kg body weight.

B1: rNgb: recombinant neuroglobin, another type of CO scavenging globin protein (protein, UniProt Q9NPG2 1-151, looked up)
Neuroglobin: MERPEPELIRQSWRAVSRSPLEHGTVLFARLFALEPDLLPLFQYNCRQFSSPEDCLSSPEFLDHIRKVMLVIDAAVTNVEDLSSLEEYLASLGRKHRAVGVKLSSFSTVGESLLYMLEKCLGPAFTPATRAAWSQLYGAVVQAMSRGWDGE
In the case of B1, the “drop of HbCO levels” value in series [4] stood at 32.8%. Moreover, the “rNgb in urinary bladder” value in series [5] is given as “millimolar concentrations”.
